# Experimental data published in patent publication US9850225B2, “Compounds useful as immunomodulators” (BRISTOL-MYERS SQUIBB COMPANY, priority 2014, dated 2017).
# Molecular target: PD-1/PD-L1 interaction (PD-1-Ig / PD-L1-His) (Homo sapiens (Human), UniProt Q9NZQ7)
# Assay: PD-1/PD-L1 Homogenous Time-Resolved Fluorescence (HTRF) binding assay
# Settings: PD-1/PD-L1 HTRF binding assay; numeric value; read-out: Range or IC50
# How it was run: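 HTRF detection used 1 nM europium-cryptate anti-Ig and 20 nM APC anti-His. Compounds first saw 10 nM PD-L1-His for 15 min, and 20 nM PD-1-Ig was then added for another 15 min. Buffer was dPBS plus 0.1% BSA and 0.05% Tween-20. All concentrations are final.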
# PD-1/PD-L1 interaction (PD-1-Ig / PD-L1-His), sequence (Q9NZQ7 other isoform, or with tags, fused parts or gaps): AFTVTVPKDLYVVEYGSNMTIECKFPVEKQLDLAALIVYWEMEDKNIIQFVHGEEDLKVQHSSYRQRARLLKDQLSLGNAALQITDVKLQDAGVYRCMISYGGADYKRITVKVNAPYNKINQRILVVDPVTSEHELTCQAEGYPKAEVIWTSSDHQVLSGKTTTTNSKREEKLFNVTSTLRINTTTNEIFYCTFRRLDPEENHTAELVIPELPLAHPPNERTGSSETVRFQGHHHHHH
row,IC50,Structure (SMILES)
1,14.2 µM,"CC(=O)NCCNCc1ccc(OCc2cccc(-c3ccccc3)c2C)cc1OCc1cccc(NC(=O)OC(C)(C)C)c1 [Example 1119, tert-butyl (3-((2-(((2-acetamidoethyl)amino)methyl)-5-((2-methyl-[1,1′-biphenyl]-3-yl)methoxy)phenoxy)methyl)phenyl)carbamate]"

# Same assay, conditions: PD-1/PD-L1 HTRF binding assay; value given as range class; read-out: Range or IC50
row,IC50,Structure (SMILES)
1,0.1 to 20 µM,"CC(=O)NCCNCc1ccc(OCc2cccc(-c3ccccc3)c2C)cc1OCc1nccc2ccccc12 [Example 1118, N-(2-((2-(isoquinolin-1-ylmethoxy)-4-((2-methyl-[1,1′-biphenyl]-3-yl)methoxy)benzyl)amino)ethyl)acetamide]"
2,0.01 to 0.1 µM,"CC(=O)NCCNCc1ccc(OCc2cccc(-c3ccccc3)c2C)cc1OC[C@@H]1CCC(=O)N1 [Example 1120, (S)—N-(2-((4-((2-methyl-[1,1′-biphenyl]-3-yl)methoxy)-2-((5-oxopyrrolidin-2-yl)methoxy)benzyl)amino)ethyl)acetamide]"
3,0.0006 to 0.01 µM,"Cc1c(COc2ccc(CNC[C@@H](O)CC(=O)O)c(OCc3cccc(C#N)c3)c2)cccc1-c1ccc2c(c1)OCCO2 [Example 1121, (S)-4-(2-(3-cyanobenzyloxy)-4-(3-(2,3-dihydrobenzo[b][1,4]dioxin-6-yl)-2-methylbenzyloxy)benzylamino)-3-hydroxybutanoic acid]"
4,0.0006 to 0.01 µM,"Cc1c(COc2ccc(CN[C@H](CO)C(=O)O)c(OCc3cccc(C#N)c3)c2)cccc1-c1ccc2c(c1)OCCO2 [Example 1122, (R)-2-(2-(3-cyanobenzyloxy)-4-(3-(2,3-dihydrobenzo[b][1,4]dioxin-6-yl)-2-methylbenzyloxy)benzylamino)-3-hydroxypropanoic acid]"
5,0.0006 to 0.01 µM,"Cc1c(COc2ccc(CN[C@@H](C(=O)O)[C@H](C)O)c(OCc3cccc(C#N)c3)c2)cccc1-c1ccc2c(c1)OCCO2 [Example 1123, (2R,3S)-2-((2-((3-cyanobenzyl)oxy)-4-((3-(2,3-dihydrobenzo[b][1,4]dioxin-6-yl)-2-methylbenzyl)oxy)benzyl)amino)-3-hydroxybutanoic acid]"
6,0.0006 to 0.01 µM,"Cc1c(COc2ccc(CNC(C)(CO)C(=O)O)c(OCc3cccc(C#N)c3)c2)cccc1-c1ccc2c(c1)OCCO2 (stereo not shown) [Example 1124, 2-((2-((3-cyanobenzyl)oxy)-4-((3-(2,3-dihydrobenzo[b][1,4]dioxin-6-yl)-2-methylbenzyl)oxy)benzyl)amino)-3-hydroxy-2-methylpropanoic acid]"
7,0.0006 to 0.01 µM,"Cc1c(COc2ccc(CN[C@@H](C(=O)O)[C@@H](C)O)c(OCc3cccc(C#N)c3)c2)cccc1-c1ccc2c(c1)OCCO2 [Example 1125, (2R,3R)-2-((2-((3-cyanobenzyl)oxy)-4-((3-(2,3-dihydrobenzo[b][1,4]dioxin-6-yl)-2-methylbenzyl)oxy)benzyl)amino)-3-hydroxybutanoic acid]"
8,0.0006 to 0.01 µM,"Cc1c(COc2ccc(CN[C@H](CO)CC(=O)O)c(OCc3cccc(C#N)c3)c2)cccc1-c1ccc2c(c1)OCCO2 [Example 1126, (S)-3-((2-((3-cyanobenzyl)oxy)-4-((3-(2,3-dihydrobenzo[b][1,4]dioxin-6-yl)-2-methylbenzyl)oxy)benzyl)amino)-4-hydroxybutanoic acid]"
9,0.0006 to 0.01 µM,"Cc1c(COc2ccc(CN[C@](C)(CO)C(=O)O)c(OCc3cccc(C#N)c3)c2)cccc1-c1ccc2c(c1)OCCO2 [Example 1127, (R)-2-((2-((3-cyanobenzyl)oxy)-4-((3-(2,3-dihydrobenzo[b][1,4]dioxin-6-yl)-2-methylbenzyl)oxy)benzyl)amino)-3-hydroxy-2-methylpropanoic acid]"
10,0.0006 to 0.01 µM,"Cc1c(COc2ccc(CN[C@@](C)(CO)C(=O)O)c(OCc3cccc(C#N)c3)c2)cccc1-c1ccc2c(c1)OCCO2 [Example 1128, (S)-2-((2-((3-cyanobenzyl)oxy)-4-((3-(2,3-dihydrobenzo[b][1,4]dioxin-6-yl)-2-methylbenzyl)oxy)benzyl)amino)-3-hydroxy-2-methylpropanoic acid]"
11,0.0006 to 0.01 µM,"Cc1c(COc2ccc(CN[C@@H](CO)CC(=O)O)c(OCc3cccc(C#N)c3)c2)cccc1-c1ccc2c(c1)OCCO2 [Example 1129, (R)-3-((2-((3-cyanobenzyl)oxy)-4-((3-(2,3-dihydrobenzo[b][1,4]dioxin-6-yl)-2-methylbenzyl)oxy)benzyl)amino)-4-hydroxybutanoic acid]"
12,0.01 to 0.1 µM,"CC(=O)NCCNCc1ccc(OCc2cccc(-c3ccc4c(c3)OCCO4)c2C)cc1OCc1cc(C#N)ccn1 [Example 1130, N-(2-(2-((4-cyanopyridin-2-yl)methoxy)-4-(3-(2,3-dihydrobenzo[b][1,4]dioxin-6-yl)-2-methylbenzyloxy)benzylamino)ethyl)acetamide]"
13,0.0006 to 0.01 µM,"Cc1c(COc2ccc(CN[C@](C)(CO)C(=O)O)c(OCc3cc(C#N)ccn3)c2)cccc1-c1ccc2c(c1)OCCO2 [Example 1131, (R)-2-(2-((4-cyanopyridin-2-yl)methoxy)-4-(3-(2,3-dihydrobenzo[b][1,4]dioxin-6-yl)-2-methylbenzyloxy)benzylamino)-3-hydroxy-2-methylpropanoic acid]"
14,0.01 to 0.1 µM,"Cc1c(COc2ccc(CN3CCCC[C@H]3C(=O)O)c(OCc3cc(C#N)ccn3)c2)cccc1-c1ccc2c(c1)OCCO2 [Example 1132, (S)-1-(2-((4-cyanopyridin-2-yl)methoxy)-4-(3-(2,3-dihydrobenzo[b][1,4]dioxin-6-yl)-2-methylbenzyloxy)benzyl)piperidine-2-carboxylic acid]"
15,0.0006 to 0.01 µM,"COc1cc(OCc2cccc(-c3ccccc3)c2C)cc(OCc2cccc(C#N)c2)c1CNC[C@@H](O)CC(=O)O [Example 1133, (S)-4-((2-((3-cyanobenzyl)oxy)-6-methoxy-4-((2-methyl-[1,1′-biphenyl]-3-yl)methoxy)benzyl)amino)-3-hydroxybutanoic acid]"
16,0.0006 to 0.01 µM,"COc1cc(OCc2cccc(-c3ccccc3)c2C)cc(OCc2cccc(C#N)c2)c1CN[C@H](CO)C(=O)O [Example 1134, (R)-2-((2-((3-cyanobenzyl)oxy)-6-methoxy-4-((2-methyl-[1,1′-biphenyl]-3-yl)methoxy)benzyl)amino)-3-hydroxypropanoic acid]"
17,0.0006 to 0.01 µM,"COc1cc(OCc2cccc(-c3ccccc3)c2C)cc(OCc2cccc(C#N)c2)c1CN[C@@H](C(=O)O)[C@H](C)O [Example 1135, (2R,3S)-2-((2-((3-cyanobenzyl)oxy)-6-methoxy-4-((2-methyl-[1,1′-biphenyl]-3-yl)methoxy)benzyl)amino)-3-hydroxybutanoic acid]"
18,0.0006 to 0.01 µM,"COc1cc(OCc2cccc(-c3ccccc3)c2C)cc(OCc2cccc(C#N)c2)c1CN[C@H](C(=O)O)[C@H](C)O [Example 1136, (2S,3S)-2-((2-((3-cyanobenzyl)oxy)-6-methoxy-4-((2-methyl-[1,1′-biphenyl]-3-yl)methoxy)benzyl)amino)-3-hydroxybutanoic acid]"
19,0.0006 to 0.01 µM,"COc1cc(OCc2cccc(-c3ccccc3)c2C)cc(OCc2cccc(C#N)c2)c1CNC(C)(CO)C(=O)O (stereo not shown) [Example 1137, 2-((2-((3-cyanobenzyl)oxy)-6-methoxy-4-((2-methyl-[1,1′-biphenyl]-3-yl)methoxy)benzyl)amino)-3-hydroxy-2-methylpropanoic acid]"
20,0.01 to 0.1 µM,"COc1cc(OCc2cccc(-c3ccccc3)c2C)cc(OCc2cccc(C#N)c2)c1CN[C@@H](C(=O)O)[C@@H](C)O [Example 1138, (2R,3R)-2-((2-((3-cyanobenzyl)oxy)-6-methoxy-4-((2-methyl-[1,1′-biphenyl]-3-yl)methoxy)benzyl)amino)-3-hydroxybutanoic acid]"
21,0.0006 to 0.01 µM,"COc1cc(OCc2cccc(-c3ccc4c(c3)OCCO4)c2C)cc(OCc2cccc(C#N)c2)c1CN[C@H](CO)C(=O)O [Example 1139, (R)-2-((2-((3-cyanobenzyl)oxy)-4-((3-(2,3-dihydrobenzo[b][1,4]dioxin-6-yl)-2-methylbenzyl)oxy)-6-methoxybenzyl)amino)-3-hydroxypropanoic acid]"
22,0.0006 to 0.01 µM,"COc1cc(OCc2cccc(-c3ccc4c(c3)OCCO4)c2C)cc(OCc2cccc(C#N)c2)c1CNC[C@@H](O)CC(=O)O [Example 1140, (S)-4-((2-((3-cyanobenzyl)oxy)-4-((3-(2,3-dihydrobenzo[b][1,4]dioxin-6-yl)-2-methylbenzyl)oxy)-6-methoxybenzyl)amino)-3-hydroxybutanoic acid]"
23,0.0006 to 0.01 µM,"COc1cc(OCc2cccc(-c3ccc4c(c3)OCCO4)c2C)cc(OCc2cccc(C#N)c2)c1CN[C@@H](CO)C(=O)O [Example 1141, (S)-2-((2-((3-cyanobenzyl)oxy)-4-((3-(2,3-dihydrobenzo[b][1,4]dioxin-6-yl)-2-methylbenzyl)oxy)-6-methoxybenzyl)amino)-3-hydroxypropanoic acid]"
24,0.0006 to 0.01 µM,"COc1cc(OCc2cccc(-c3ccc4c(c3)OCCO4)c2C)cc(OCc2cccc(C#N)c2)c1CN[C@@](C)(CO)C(=O)O [Example 1142, (S)-2-((2-((3-cyanobenzyl)oxy)-4-((3-(2,3-dihydrobenzo[b][1,4]dioxin-6-yl)-2-methylbenzyl)oxy)-6-methoxybenzyl)amino)-3-hydroxy-2-methylpropanoic acid]"
25,0.01 to 0.1 µM,"N#Cc1cccc(COc2cc(OCc3cccc(-c4ccc5c(c4)OCCO5)c3Cl)ccc2CN2CCCC[C@H]2C(=O)O)c1 [Example 1145, (S)-1-(4-(2-chloro-3-(2,3-dihydrobenzo[b][1,4]dioxin-6-yl)benzyloxy)-2-(3-cyanobenzyloxyl)benzyl)piperidine-2-carboxylic acid]"

row,Structure (SMILES),IC50
1,"Cc1c(COc2ccc(CN[C@H](CO)C(=O)O)c(OCCCCC#N)c2)cccc1-c1ccccc1 [Example 1143, (R)-2-((2-(4-cyanobutoxy)-4-((2-methyl-[1,1′-biphenyl]-3-yl)methoxy)benzyl)amino)-3-hydroxypropanoic acid]",0.0006 to 0.01 µM
2,"Cc1c(COc2ccc(CNC[C@@H](O)CC(=O)O)c(OCCCCC#N)c2)cccc1-c1ccccc1 [Example 1144, (S)-4-((2-(4-cyanobutoxy)-4-((2-methyl-[1,1′-biphenyl]-3-yl)methoxy)benzyl)amino)-3-hydroxybutanoic acid]",0.0006 to 0.01 µM
